Measurements reported in ChEMBL document CHEMBL1135335, “Multisubstrate analogue inhibitors of glucosamine-6-phosphate synthase from Candida albicans” (Bioorg Med Chem Lett, 2002).
Activity calls are given as the source filed them. No cut-off for these calls is given here.

System: not listed separately
Assay: Concentration required to inhibit glucosamine-6-phosphate synthase (GFAT) isolated from Candida albicans
Work on `NC(CCCP(=O)(O)O)C(=O)O` (configuration not stated) yielded an IC50 of 210 µM. `NC(CCCCCP(=O)(O)O)C(=O)O` (configuration not stated) [AP-7] showed an IC50 of 270 µM. In the case of `NC(CCP(=O)(O)O)C(=O)O` (configuration not stated), the IC50 is reported as 10 µM. For `NC(CCCCP(=O)(O)O)C(=O)O` (configuration not stated), the IC50 was 250 µM. In the case of `NC(CP(=O)(O)O)C(=O)O` (configuration not stated), the IC50 is reported as 0.01 µM. For `O=C(O)[C@@H]1C[C@H](CP(=O)(O)O)CCN1` [SELFOTEL], the IC50 was 0.4 µM.

System: Saccharomyces cerevisiae
Assay: Inhibitory activity against glucosamine-6-phosphate synthase (GFAT) isolated from Saccharomyces cerevisiae at concentrations <10 mM; NI means no inhibition
For `NC(CP(=O)(O)O)C(=O)O` (configuration not stated), the inhibition was “inactive”.
